# Measurements taken from US9037230B2, “Method and device for treating microscopic tumors remaining in tissues following surgical resection” (OncoSec Medical Incorporated, priority 2006, dated 2015).
# Legend:
# [1] = Histological evaluation of incision healing (skin, subcutaneous tissue, muscle) in swine; assay type: in vivo
# Procedure: (§1) In this experiment eighteen transcutaneous incisions were made into the dorsal muscles in each of eight pig test animals grouped 1-6. In study groups 1-5, longitudinal incisions were made while in group 6 the incisions were transverse to the longitudinal orientation of the muscle fiber. At each incision site, either nothing, normal saline, or Bleomycin in solution was injected such that injections were placed to a 1 cm depth and spaced at 1 cm distances from one another with three injections, one on each side of each incision within 3 cm of each other and one in the center of the incision. Bleomycin, an anti-cancer agent, was used wherein each injection consisted of 0.125 ml (4 units/ml saline). The incisions were then treated with bipolar pulses of 530 V, 100 μsec each, from a pulse generator using a 6-needle electrode array of 0.5 cm diameter (nominal field strength for each pulse was 1,233 V/cm).
# (§2) Specifically, 8 male Yorkshire/Hampshire cross swine (40-50 kg) were acclimated 5-7 days prior to surgery. Incision locations were marked on the dorsum using sterile surgical markers. Each incision was 5 cm long and made to a depth of 5 mm into the muscle. All animals in groups 1-5 received 18 longitudinal incisions each, while animals in group 6 received transverse incisions, in accordance with Table I. Each study group comprised 24 incisions.
# Injections of a total volume of 1.5 ml of saline or Bleomycin (6 U) were administered at 12 sites per incision, 6 in the muscle and 6 in the skin. Incisions treated with electroporation were electroporated using a 0.5 cm diameter, 1.5 cm long needle array. On each side of the muscle incision, electroporation was given 3 times in the central 3 cm of the incision, each electroporation site being 1 cm apart from the other. Skin was not electroporated. The epimysium was closed with 4-0 Vicryl absorbable interrupted sutures. The skin was closed with 4-0 nylon interrupted sutures. Swine were sacrificed at 2 d, 1 wk, 2 wks, or 3 wks following surgery. […]
# [2] = Breaking strength of healing skin incisions in swine after Bleomycin with or without electroporation; assay type: in vivo
# Procedure: as §1, §2
# Injections of a total volume of 1.5 ml of saline or Bleomycin (6 U) were administered at 12 sites per incision, 6 in the muscle and 6 in the skin. Incisions treated with electroporation were electroporated using a 0.5 cm diameter, 1.5 cm long needle array. On each side of the muscle incision, electroporation was given 3 times in the central 3 cm of the incision, each electroporation site being 1 cm apart from the other. Skin was not electroporated. The epimysium was closed with 4-0 Vicryl absorbable interrupted sutures. The skin was closed with 4-0 nylon interrupted sutures. Swine were sacrificed at 2 d, 1 wk, 2 wks, or 3 wks following surgery. Histology specimens containing skin and at least 5 mm depth of underlying muscle were taken from the center of the incision and immediately placed in 10% neutral buffered formalin. An additional control specimen was taken from non-incised skin on the dorsum. After staining and sectioning, skin, subcutaneous tissue, and muscle were graded histologically on a 0-3 scale using the following parameters: Healing, Granulations/Fibrosis, PMN's, Lymphocytes, Histiocytes, Necrosis, Hemorrhage and Atypical Cells.
# Mechanical testing was performed on strips of skin removed from the center of the incision at three different time points, namely, Days 7, 14, and 21. […] Breaking strength was determined by plotting the […] versus the strain for each incision up to the breaking point. […]
# [3] = system: HT-29 human colon carcinoma cells; details: stated as known, not tested; cited from earlier work
# [4] = system: HT-29 human colon carcinoma cells; test: Tumor recurrence after surgery and Bleomycin electroporation therapy (EPT) in nude mice with HT-29 tumors; assay type: in vivo; details: for % efficacy (animals that did NOT experience tumor growth post treatment): three weeks after treatment
# Procedure: In this example, a series of experiments were performed in mice wherein tumor recurrence rates were determined after surgery alone or after surgery and EPT. Specifically, this experiment comprises an in vivo study to establish the efficacy of EPT on surgical margin treatment in nude mice after subcutaneous introduction of HT-29 human colon carcinoma cells and resection of the tumors that arise from such introduction. The experiment was conducted under humane conditions with respect to treatment of the test animals.
# The experimental design was as follows. Normal Athymic Nude female mice 4-6 weeks of age were placed in 8 groups of six mice each, except for Group 1 which comprised 10 animals and Group 3 comprising 7 animals. The HT-29 cell line is derived from a human colon carcinoma and is an aggressive fast-growing tumor in mice. In each group the animals received HT-29 human tumor cells in the form of two adjacent inocula of 5×10^6 cells using a 21 gauge needle and syringe. The HT-29 cell line was obtained from […] (#HTB-38), grown in McCoy's 5a medium (modified) with 1.5 mM L-glutamine adjusted to contain 2.2 g/L sodium bicarbonate, 90%, and fetal bovine serum, 10%. Cells were divided 1:2 to 1:4 on growth cycles until sufficient cells were available to use in this experiment.
# Following inoculation the tumors became established at the site of the inoculations. The tumor volume on each animal was monitored regularly and calculated using the formula: Tumor volume=(a^2×b/2) where ‘a’ is the smallest diameter and ‘b’ is the largest diameter perpendicular to ‘a’. Tumors were measured three times per week starting from the day the tumors were palpable by hand. The tumors were allowed to progress until the size was between 500 and 1500 cubic millimeters. Surgical tumor removal, partial removal, or no removal was then performed in association with either EPT or no EPT. In these experiments EPT means treatment with Bleomycin and electroporation (EP). The EP, where performed, was conducted with one pulse cycle (i.e., 6 pulses at 4 Hz) per electrode insertion using a standard MedPulser generator (Genetronics, Inc. San Diego, Calif.) and an applicator with a disposable six needle array of 1 cm diameter, a distance between electrodes of 0.86 cm, and 1 cm needle length. […] The needle array was inserted percutaneously and essentially perpendicular to the surface of the flank of the mouse carrying the tumor. Alternatively, in those cases where the tumor was excised first, followed by i.v. injection of Bleomycin and then by EP, the needle electrode array was inserted percutaneously encompassing the surgical wound area (Groups 5-8).
# Where Bleomycin was used in the experiment, it was injected at 4 U/ml saline (1U=1 mg) as uniformly as possible into tumor and margin tissues, as indicated, at a dose of 0.25 ml/cm^3 volume of tissue to be treated. Alternatively, where indicated, a corresponding amount of Bleomycin was injected into the tail vein.
# The experiment used 8 cohorts of at least 6 mice each. Each cohort was subjected to a treatment regimen of a combination of any of EP, Bleomycin, saline instead of Bleomycin, complete tumor excision, partial tumor excision, and no tumor excision. Tables II and III disclose the treatment regimens.
# For experiments on animals listed in Table II, the animals were anaesthetized, followed by removal or partial removal of the tumor as indicated, followed in turn by intraveneous (i.v.) injection of Bleomycin or saline. The Bleomycin dose was dependent on tumor size as described above. After 3 to 4 minutes, the animals indicated were treated with EP followed by closure of the wound with clips and surgical adhesive. In cohort 1, the entire tumor was surgically removed (see, for example FIGS. 12B and C) and the animals treated with Bleomycin and EP. In cohort 2, the tumors were removed from the animals but only saline was injected instead of Bleomycin and no EP was performed. […]
# [5] = system: HT-29 human colon carcinoma cells; test: Gross consistency of HT-29 tumors excised at various times after Bleomycin-EPT; assay type: in vivo, mice
# Procedure: For this purpose, three additional cohort Groups 9, 10, and 11 were used.
# The animals of Group 9 were anaesthetized followed by complete excision of the tumors. The tumors were examined for consistency and preserved in formalin for later histological evaluation, as were the tumor tissues of cohorts 10 and 11. Anaesthetized animals of cohort 10 were subjected to intratumoral administration of Bleomycin solution at a dose and volume as described above. EP was performed 10 minutes after drug administration. Tumors were excised 2 hrs after EP. Animals of cohort 11 were treated as those in cohort 10 except that their tumors were completely removed at 24 hrs after EP. All wounds were closed as described above. Results
# With respect to cohorts 9-11, we observed that the consistency of the tumor changed progressively with time after treatment. […] At that time point surgical excision was somewhat difficult because the boundaries of the tumor were ill defined as compared to the solid tumor tissue mass of cohort 9 animals. […] These observations provide proof of the opportunity of using drug, such as Bleomycin or other anticancer agent, in combination with EPT as adjuvant or tumor debulking therapy that can additionally be used alone or in conjunction with other cancer therapies. For example, a tumor could be treated with Bleomycin-EPT, the disintegrated tumor material be removed by a simple minimally invasive procedure, and if desired, followed by conventional treatments such as radiation or chemotherapy, or other tumor therapy modalities. Easy removal of the liquefied tumor material can also allow the wound to heal faster and with fewer complications, especially in the case of large tumors.
substance,measurement,setting,value
Bleomycin,"muscle necrosis, Bleomycin plus EP vs Bleomycin","[1]; 2 weeks, difference disappeared by 3 weeks",significant increase in muscle necrosis
same,histological changes,"[1]; day 7, Bleomycin groups",statistically significant changes
same,histology compared with controls,"[1]; day 21, all Bleomycin injected samples",comparable with saline-injected controls
same,reduction of breaking strength of skin incisions compared to non-Bleomycin groups,"[2]; 1 week post-incision, all three Bleomycin treated groups (with or without EP)",90%
same,"wound strength (breaking point), difference between saline and Bleomycin with or without EP","[2]; three weeks post incision, FIG. 1",no substantial difference
same,"breaking strength of skin incisions, difference between groups","[2]; week 2, longitudinal incisions, Bleomycin with or without EP (Groups 4, 5) vs Groups 1-3",no significant differences between Groups 1-5
same,"breaking strength of skin incisions, difference between groups","[2]; week 3, Group 6, transverse incisions with Bleomycin and EP vs Groups 1-5",significantly lower breaking strength
same,antitumoral activity of Bleomycin administration without EP,[3],no significant antitumoral activity
same,% efficacy (animals that did NOT experience tumor growth post treatment),"[4]; Group 1: complete tumor excision, Bleomycin i.v., EP",90%
same,tumor recurrence at the site of treatment,"[4]; Group 1: complete tumor removal, Bleomycin-EP, 3 weeks post treatment (FIG. 12)",no tumor recurred
same,% efficacy (animals that did NOT experience tumor growth post treatment),"[4]; Group 3: partial tumor excision, Bleomycin i.v., EP",67%
same,% efficacy (animals that did NOT experience tumor growth post treatment),"[4]; Group 5: Bleomycin intratumoral, EP, complete tumor excision 15 minutes later",100%
same,% efficacy (animals that did NOT experience tumor growth post treatment),"[4]; Group 6: no tumor excision, Bleomycin intratumoral, EP",80%
same,% efficacy (animals that did NOT experience tumor growth post treatment),"[4]; Group 7: Bleomycin intratumoral, EP, partial tumor excision 15 minutes later",100%
same,tumor recurrence,"[4]; Group 7: partial tumor removal, Bleomycin i.t. and EP, 3 weeks (FIG. 13)",no tumor recurrence
same,% efficacy (animals that did NOT experience tumor growth post treatment),"[4]; Group 8: no tumor excision, Bleomycin intratumoral, partial (off-centered) EP",67%
same,tumor recurrence,"[4]; cohorts 5 and 7: Bleomycin i.t. and EP, excision 15 minutes after treatment",no tumor recurrence
same,consistency of the tumor,[5]; cohort 10: excised two hours after i.t. Bleomycin-EP,"softer, less well defined"
same,consistency of the tumor,[5]; cohort 11: excised 24 hrs after i.t. Bleomycin-EP,completely softened
same,consistency of the tumor,[5]; cohorts 5 and 7: removed 15 minutes after i.t. Bleomycin-EP,softening of the tumor
